Measurements published in ChEMBL document CHEMBL1201862, “PubChem BioAssay data set” (2004).
The source made the active and inactive calls.

What was measured:
[1] = biological target: T1, Heat shock factor protein 1 (Mus musculus, UniProt P38532); test: HSF1 potentiators in luciferase reporter cells, confirmation, cell-based, NIH3T3, luminescence, dose retest (AID 435004); type: functional;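 further: stress induced by proteasome inhibitor MG132 added 30 min after compound; luciferase reporter driven by HSF1 response element in NIH3T3 cells; actives raise luminescence as potentiators of the MG132 stress response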
T1 sequence (P38532 whole entry): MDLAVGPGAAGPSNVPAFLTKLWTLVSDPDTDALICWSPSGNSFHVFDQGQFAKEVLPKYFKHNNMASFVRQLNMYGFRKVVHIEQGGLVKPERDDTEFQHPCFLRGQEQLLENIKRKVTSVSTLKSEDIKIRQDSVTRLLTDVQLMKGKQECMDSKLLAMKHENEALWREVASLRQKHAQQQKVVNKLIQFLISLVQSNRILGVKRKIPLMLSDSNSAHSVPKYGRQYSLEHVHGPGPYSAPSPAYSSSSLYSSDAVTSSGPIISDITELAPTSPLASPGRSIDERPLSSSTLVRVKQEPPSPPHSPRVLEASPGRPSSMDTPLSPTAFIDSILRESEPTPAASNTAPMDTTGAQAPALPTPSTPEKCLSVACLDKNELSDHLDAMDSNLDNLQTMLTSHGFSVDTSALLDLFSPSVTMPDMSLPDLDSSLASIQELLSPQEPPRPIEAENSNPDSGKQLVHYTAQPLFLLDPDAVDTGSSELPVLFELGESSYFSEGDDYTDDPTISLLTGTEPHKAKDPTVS

[2] = biological target: T2, Corticotropin-releasing factor receptor 2/Corticotropin-releasing factor-binding protein (Homo sapiens, UniProt P24387+Q13324); test: activators of CRF receptor 2 with binding protein – uHTS hits, confirmation (AID 602473); type: functional; details: read-out: EC50_Mean
T2 sequence (Q13324 whole entry): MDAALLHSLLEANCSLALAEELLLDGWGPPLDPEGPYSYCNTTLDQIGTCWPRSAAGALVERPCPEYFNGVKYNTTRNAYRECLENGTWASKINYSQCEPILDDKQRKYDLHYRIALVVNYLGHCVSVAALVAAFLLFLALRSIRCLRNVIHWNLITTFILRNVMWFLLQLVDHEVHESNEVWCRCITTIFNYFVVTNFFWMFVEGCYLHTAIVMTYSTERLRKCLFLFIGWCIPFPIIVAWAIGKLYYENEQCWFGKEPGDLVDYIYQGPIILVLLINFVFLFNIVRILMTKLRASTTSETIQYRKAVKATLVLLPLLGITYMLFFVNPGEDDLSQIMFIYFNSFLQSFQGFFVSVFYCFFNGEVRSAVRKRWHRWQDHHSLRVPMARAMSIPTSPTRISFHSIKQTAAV
T2 sequence (P24387 whole entry): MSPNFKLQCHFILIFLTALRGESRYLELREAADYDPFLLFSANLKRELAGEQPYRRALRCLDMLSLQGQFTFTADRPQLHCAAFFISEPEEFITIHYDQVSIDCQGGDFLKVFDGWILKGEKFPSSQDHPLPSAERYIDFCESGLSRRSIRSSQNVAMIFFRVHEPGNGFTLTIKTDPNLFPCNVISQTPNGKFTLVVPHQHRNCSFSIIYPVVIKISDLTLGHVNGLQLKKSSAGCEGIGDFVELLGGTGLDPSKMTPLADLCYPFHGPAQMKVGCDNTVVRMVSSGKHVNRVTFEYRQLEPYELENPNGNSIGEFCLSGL

[3] = biological target: T2, Corticotropin-releasing factor receptor 2/Corticotropin-releasing factor-binding protein; test: Dose Response confirmation of uHTS hits for small molecule antagonists of the CRF-binding protein and CRF-R2 receptor complex.; type: functional; details: read-out: IC50_Mean
[4] = inhibitors of SNCA 5'UTR-driven reporter translation, confirmation, H4 neuroglioma cells, luminescence (AID 1988); type: functional, cell-based
[5] = inhibitors of firefly luciferase expression or activity, dose response, H4 neuroglioma cells, luminescence (AID 1990); type: functional, cell-based
[6] = Luminescence Cell-Based Dose Response HTS to Identify Inhibitors of 5'UTR Stem-Loop Driven Prion Protein mRNA Translation in H4 Neuroglioblastoma Cells. [Related pubchem assays: 1827 (Project Summary), 1813 (Primary HTS)]; type: functional
Cytochrome P450 1A2 = biological target: T3, Cytochrome P450 1A2 (Homo sapiens, UniProt P05177);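 further: PubChem cytochrome P450 panel assay, CYP1A2 panel member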
T3 sequence (P05177 whole entry): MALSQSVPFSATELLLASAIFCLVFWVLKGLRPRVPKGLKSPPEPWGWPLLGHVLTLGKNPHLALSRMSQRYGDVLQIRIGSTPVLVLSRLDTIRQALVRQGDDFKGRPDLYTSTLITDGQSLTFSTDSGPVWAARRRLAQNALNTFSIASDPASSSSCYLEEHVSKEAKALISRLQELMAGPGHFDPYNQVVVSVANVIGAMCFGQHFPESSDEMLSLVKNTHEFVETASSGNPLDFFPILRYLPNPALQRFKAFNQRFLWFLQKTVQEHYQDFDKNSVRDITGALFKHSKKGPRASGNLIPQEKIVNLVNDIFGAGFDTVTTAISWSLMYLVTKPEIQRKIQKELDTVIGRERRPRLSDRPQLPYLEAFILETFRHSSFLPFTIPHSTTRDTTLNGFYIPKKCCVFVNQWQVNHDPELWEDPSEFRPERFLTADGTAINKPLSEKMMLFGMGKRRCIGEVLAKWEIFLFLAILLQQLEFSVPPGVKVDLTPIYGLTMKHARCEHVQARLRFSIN

Cytochrome P450 2C19 = Cytochrome P450 2C19 (Homo sapiens, UniProt P33261); test: Cytochrome panel assay with activity outcomes. Panel member name: p450-cyp2c19 Compounds with AC50 equal or less than 10 uM are considered active; type: functional; details: read-out: AC50
Chain of Cytochrome P450 2C19 (P33261 whole entry): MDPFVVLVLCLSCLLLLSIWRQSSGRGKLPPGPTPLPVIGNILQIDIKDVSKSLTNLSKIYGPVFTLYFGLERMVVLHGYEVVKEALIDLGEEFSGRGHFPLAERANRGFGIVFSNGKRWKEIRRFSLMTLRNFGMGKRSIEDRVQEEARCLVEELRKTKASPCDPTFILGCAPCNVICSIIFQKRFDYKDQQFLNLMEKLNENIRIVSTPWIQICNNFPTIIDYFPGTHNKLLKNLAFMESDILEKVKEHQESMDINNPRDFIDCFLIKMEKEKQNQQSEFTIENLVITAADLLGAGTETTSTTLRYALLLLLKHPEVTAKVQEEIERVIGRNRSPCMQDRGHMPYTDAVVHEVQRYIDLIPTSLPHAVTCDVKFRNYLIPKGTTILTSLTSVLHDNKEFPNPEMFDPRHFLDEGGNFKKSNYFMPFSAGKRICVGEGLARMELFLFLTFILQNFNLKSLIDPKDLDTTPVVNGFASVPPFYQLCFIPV

Cytochrome P450 3A4 = Cytochrome P450 3A4 (Homo sapiens, UniProt P08684);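 further: CYP3A4 tested as one member of a cytochrome P450 panel screen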
Chain of Cytochrome P450 3A4 (P08684 whole entry): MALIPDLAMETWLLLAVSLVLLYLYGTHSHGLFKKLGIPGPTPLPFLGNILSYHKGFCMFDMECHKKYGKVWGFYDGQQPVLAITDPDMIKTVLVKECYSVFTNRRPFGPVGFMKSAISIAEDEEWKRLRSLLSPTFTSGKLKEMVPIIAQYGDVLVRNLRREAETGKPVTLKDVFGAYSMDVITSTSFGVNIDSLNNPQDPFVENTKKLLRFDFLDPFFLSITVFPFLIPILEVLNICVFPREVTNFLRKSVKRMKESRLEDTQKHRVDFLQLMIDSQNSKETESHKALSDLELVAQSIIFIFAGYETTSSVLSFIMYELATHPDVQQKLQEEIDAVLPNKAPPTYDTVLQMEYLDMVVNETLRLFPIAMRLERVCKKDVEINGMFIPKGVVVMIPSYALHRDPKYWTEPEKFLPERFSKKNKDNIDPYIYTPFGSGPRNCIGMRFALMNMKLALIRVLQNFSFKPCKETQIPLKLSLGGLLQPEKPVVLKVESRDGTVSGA

Cytochrome P450 2C9 = Cytochrome P450 2C9 (Homo sapiens, UniProt P11712)
Chain of Cytochrome P450 2C9 (P11712 whole entry): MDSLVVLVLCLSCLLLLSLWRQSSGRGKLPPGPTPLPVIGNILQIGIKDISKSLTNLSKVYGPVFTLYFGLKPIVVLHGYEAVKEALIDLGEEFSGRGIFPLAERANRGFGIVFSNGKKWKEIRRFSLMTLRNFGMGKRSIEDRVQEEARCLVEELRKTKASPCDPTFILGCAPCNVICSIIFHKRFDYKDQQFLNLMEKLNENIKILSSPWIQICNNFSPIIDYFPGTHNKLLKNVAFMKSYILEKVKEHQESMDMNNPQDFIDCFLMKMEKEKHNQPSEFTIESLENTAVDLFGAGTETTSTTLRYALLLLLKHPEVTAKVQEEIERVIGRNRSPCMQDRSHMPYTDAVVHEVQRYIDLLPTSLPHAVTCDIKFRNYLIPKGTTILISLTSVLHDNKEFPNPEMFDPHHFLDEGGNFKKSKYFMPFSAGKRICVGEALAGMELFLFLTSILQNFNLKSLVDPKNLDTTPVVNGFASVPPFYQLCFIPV

[7] = biological target: T4, Rac GTPase-activating protein 1 (Homo sapiens, UniProt Q9H0H5); test: MgcRacGAP GTPase-activating activity inhibitors, confirmation, biochemical, ADP Hunter fluorescence, primary and confirmatory (AID 624330); type: functional
T4 sequence (Q9H0H5 whole entry): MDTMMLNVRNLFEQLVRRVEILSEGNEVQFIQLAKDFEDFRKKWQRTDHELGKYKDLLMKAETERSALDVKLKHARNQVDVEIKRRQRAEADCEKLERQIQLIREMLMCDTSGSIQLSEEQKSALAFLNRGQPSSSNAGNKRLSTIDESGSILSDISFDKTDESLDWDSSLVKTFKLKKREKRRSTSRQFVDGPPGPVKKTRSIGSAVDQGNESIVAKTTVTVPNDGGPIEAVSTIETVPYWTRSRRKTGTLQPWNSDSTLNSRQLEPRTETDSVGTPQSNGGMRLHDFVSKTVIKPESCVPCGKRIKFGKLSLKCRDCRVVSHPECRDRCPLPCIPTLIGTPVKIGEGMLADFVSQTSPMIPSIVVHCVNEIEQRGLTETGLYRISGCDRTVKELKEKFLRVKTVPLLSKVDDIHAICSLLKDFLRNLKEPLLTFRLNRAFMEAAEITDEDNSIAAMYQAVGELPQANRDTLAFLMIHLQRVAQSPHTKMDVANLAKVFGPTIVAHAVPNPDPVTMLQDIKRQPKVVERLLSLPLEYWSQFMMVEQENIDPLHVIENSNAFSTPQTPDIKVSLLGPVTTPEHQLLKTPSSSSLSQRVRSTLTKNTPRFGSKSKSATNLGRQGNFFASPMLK

[8] = inhibitors of intracellular T. cruzi replication, confirmation, NIH3T3 host cells, beta-gal luminescence (AID 2044); type: functional, cell-based;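 further: intracellular parasites grown in NIH/3T3 mouse fibroblasts as host cells; luminescent beta-galactosidase reporter signal from transgenic T. cruzi replicating inside host cells; inhibitors lower the luminescence signal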
[9] = cytotoxicity toward NIH3T3 fibroblasts, dose response, counter-screen, cell-based, ATP luminescence, mouse fibroblasts (AID 2010); type: functional;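 further: cells exposed to compound for about 90 hours before reading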

Cc1cccc(S(=O)(=O)NCCC(=O)OC(C)C(=O)NC(=O)NC2CCCCC2)c1 (stereo unspecified)
EC50 [1]: > 260 µM (inactive)

COc1ccc(C2c3c(-c4ccccc4O)n[nH]c3C(=O)N2Cc2ccco2)cc1 (stereo unspecified)
EC50 [2]: > 53 µM (inactive)
IC50 [3]: > 47.1 µM (inactive)

N#Cc1ccsc1NC(=O)COC(=O)CCCSc1nc2ccccc2s1
EC50 [4]: 16.1 µM (active)
EC50 [5]: > 120 µM (not active)
EC50 [6]: > 120 µM (not active)

O=C(c1ccco1)N(Cc1ccc([N+](=O)[O-])cc1)c1ccc(Br)cc1
EC50 [1]: > 260 µM (inactive)

COc1ccc(C(=O)CC(=O)C(=O)Nc2cc(OC)c(OC)c(OC)c2)cc1
EC50 [1]: > 260 µM (inactive)

O=c1c(-c2ccc(Cl)cc2)nc2cnc(N3CCNCC3)nc2n1Cc1ccc(F)cc1
AC50 (Cytochrome P450 1A2): 15.8 µM (inconclusive)
AC50 (Cytochrome P450 2C19): 39.8 µM (inconclusive)
AC50 (Cytochrome P450 3A4): 12.6 µM (inconclusive)

COC(=O)[C@@]1(Cc2ccc(F)cc2)[C@H]2c3cc(C(=O)N(C)C)n(Cc4cccc5ccccc45)c3C[C@H]2CN1C(=O)c1ccccc1
AC50 (Cytochrome P450 1A2): 6.31 µM (inconclusive)

Cc1sc2ncnc(Sc3ccccc3C(=O)Nc3ccc(C#N)cc3)c2c1C
EC50 [2]: > 53 µM (inactive)
IC50 [3]: > 47.1 µM (inactive)

Cc1nn(C(C)C(=O)NCCCN2CCCCC2C)c(=O)c2c1sc1ccccc12 (stereo unspecified)
EC50 [1]: > 260 µM (inactive)

O=c1c(-c2ccccc2)nc2cnc(N3CCNCC3)nc2n1Cc1ccc(F)cc1
AC50 (Cytochrome P450 1A2): 20 µM (inconclusive)
AC50 (Cytochrome P450 2C19): 31.6 µM (inconclusive)

COc1cccc(Cn2c(=O)c(CCc3ccccc3)nc3cncnc32)c1
AC50 (Cytochrome P450 2C9): 12.6 µM (inconclusive)
AC50 (Cytochrome P450 1A2): 12.6 µM (inconclusive)
AC50 (Cytochrome P450 2C19): 25.1 µM (inconclusive)

COc1ccc(Nc2ccccc2)c(C)c1
IC50 [7]: 44.9 µM (active)
EC50 [2]: > 53 µM (inactive)
IC50 [3]: > 47.1 µM (inactive)

Brc1ccccc1Cn1c(-c2cncs2)nc2ccccc21
EC50 [4]: > 120 µM (not active)
EC50 [5]: 17.1 µM (active)
EC50 [6]: > 120 µM (not active)

Cc1ccc(C(=O)Cn2nc(C(=O)O)c3ccccc3c2=O)cc1C
EC50 [1]: > 260 µM (inactive)

CCN1CCSc2ccc(C(=O)NCc3cccc(Br)c3)cc21
EC50 [1]: > 260 µM (inactive)

O=C(Nc1ccc2c(c1)OCO2)c1nn(-c2ccccc2)c(=O)c2ccccc12
EC50 [4]: > 120 µM (not active)
EC50 [5]: > 120 µM (not active)
EC50 [6]: 24 µM (active)

Cc1ccc(Cl)cc1N1CCN(C(=O)Cc2c(C(=O)O)[nH]c3ccc(Cl)cc23)CC1
EC50 [2]: > 53 µM (inactive)
IC50 [3]: > 47.1 µM (inactive)

CC(NC(=O)C1CCCN1S(=O)(=O)c1cccc2nsnc12)c1ccccc1 (stereo unspecified)
EC50 [2]: > 53 µM (inactive)
IC50 [3]: > 47.1 µM (inactive)

Cc1ccc(-n2ccc(=O)c(-c3ccnc(SCc4cccc(Cl)c4)n3)n2)cc1
AC50 (Cytochrome P450 1A2): 14.1 µM (inconclusive)

COC(=O)C1=C(C)N(Cc2ccc(C)cc2)C(=O)/C1=C\c1cc(OC)c(OC)c(OC)c1
EC50 [1]: 11.6 µM (active)

COc1ccc(CNC2CCSc3ccccc32)cc1OC (stereo unspecified)
EC50 [1]: > 260 µM (inactive)

Cn1c(C(=O)OC(C(=O)NC(C)(C)C)c2cccnc2)cc2sccc21 (stereo unspecified)
EC50 [1]: > 260 µM (inactive)
EC50 [8]: 1.23 µM (active)
EC50 [9]: 48.4 µM (active)

Nc1c(S(=O)(=O)c2ccccc2)c2nc3ccccc3nc2n1Cc1ccco1
AC50 (Cytochrome P450 1A2): 22.4 µM (inconclusive)

COc1ccc(CN(C(=O)c2ccc(C)cc2)C2CCS(=O)(=O)C2)cc1 (stereo unspecified)
EC50 [2]: > 53 µM (inactive)
IC50 [3]: > 47.1 µM (inactive)

N[C@H](C(=O)O)C1[C@H](C(=O)O)[C@H]1C(=O)O (stereo partly specified)
AC50 (Cytochrome P450 1A2): 31.6 µM (inconclusive)
AC50 (Cytochrome P450 2C19): 31.6 µM (inconclusive)

CSc1nsc(/C=C/Nc2ccc(Cl)cc2)c1C#N
AC50 (Cytochrome P450 1A2): 5.62 µM (inconclusive)
AC50 (Cytochrome P450 2C19): 3.55 µM (inconclusive)

COc1ccc(N(CC(=O)Nc2ccc(S(=O)(=O)N3CCCCC3)cc2)S(C)(=O)=O)cc1OC
EC50 [4]: > 120 µM (not active)
EC50 [5]: > 120 µM (not active)
EC50 [6]: > 120 µM (not active)

Cc1cc2occ(CC(=O)NCc3cccs3)c2cc1C(C)C
EC50 [1]: > 260 µM (inactive)

COC(=O)[C@@]1(Cc2ccc(OC)cc2)[C@H]2c3cc(C(=O)N4CCCC4)n(Cc4ccc(Cl)c(C(F)(F)F)c4)c3C[C@H]2CN1C(=O)c1ccccc1
AC50 (Cytochrome P450 1A2): 12.6 µM (inconclusive)
AC50 (Cytochrome P450 3A4): 1.26 µM (inconclusive)

COCCN(C(=O)C(C)C)c1nnc(-c2ccc(C)cc2)s1
AC50 (Cytochrome P450 1A2): 12.6 µM (inconclusive)

Cc1cccn2c(=O)nc(SCC(=O)N3N=C(c4cccs4)CC3c3ccc(F)cc3)nc12 (stereo unspecified)
EC50 [1]: > 260 µM (inactive)
EC50 [8]: 1.48 µM (active)
EC50 [9]: 11.6 µM (active)

CC(=O)Nc1ccc2c(c1)N(C(=O)CN(C)C)c1ccccc1CC2
EC50 [1]: > 260 µM (inactive)

Cc1cc(F)c(F)c(C(=O)N2CCOCC2)c1Cl
EC50 [1]: > 260 µM (inactive)

O=C(COC(=O)CCc1ccc(S(=O)(=O)N2CCOCC2)cc1)Nc1ccccc1OC(F)F
EC50 [2]: > 53 µM (inactive)
IC50 [3]: > 47.1 µM (inactive)

Cc1nnsc1-c1onc(C)c1C(=O)O/N=C/c1ccc(Cl)cc1
EC50 [2]: > 53 µM (inactive)
IC50 [3]: > 47.1 µM (inactive)

Cc1ncc([N+](=O)[O-])n1CCOC(N)=O [BAMNIDAZOLE]
EC50 [2]: > 53 µM (inactive)
IC50 [3]: > 47.1 µM (inactive)
